The target in data set [1] is T1, hPPARγ (Homo sapiens, UniProt P37231).
T1 sequence (P37231 with tags, fused parts or gaps limits assumed): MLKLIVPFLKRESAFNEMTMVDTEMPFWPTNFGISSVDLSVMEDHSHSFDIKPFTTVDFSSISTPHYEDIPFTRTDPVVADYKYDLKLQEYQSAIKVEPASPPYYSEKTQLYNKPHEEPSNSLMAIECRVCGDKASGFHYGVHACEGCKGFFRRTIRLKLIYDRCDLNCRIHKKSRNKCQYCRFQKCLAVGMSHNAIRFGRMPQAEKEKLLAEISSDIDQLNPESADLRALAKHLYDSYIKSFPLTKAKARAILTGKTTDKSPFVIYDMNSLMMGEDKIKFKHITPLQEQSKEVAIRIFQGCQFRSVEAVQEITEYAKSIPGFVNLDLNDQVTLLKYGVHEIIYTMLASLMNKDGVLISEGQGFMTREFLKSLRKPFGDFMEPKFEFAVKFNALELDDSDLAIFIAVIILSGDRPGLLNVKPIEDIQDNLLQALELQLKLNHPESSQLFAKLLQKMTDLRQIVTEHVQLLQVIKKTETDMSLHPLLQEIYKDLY
Briefly: Co-transfection assay, transactivation of hPPARγ (pCMVhPPARγ) in CV-1 cells, FIG. 1. To be noted: CV-1 cells transfected with 0.1 μg pCMVhPPARγ; compared with empty vector pBKCMV (no receptor). The method, then: CV-1 cells were transfected with 0.1 μg pCMVhPPARγ or the empty expression vector pBKCMV (no receptor).
CV-1 or HepG2 cells were grown in Dulbecco's modified Eagle's medium (DMEM) supplemented with 10% (v/v) fetal bovine serum (Hyclone), 2 mM L-glutamine, and 55 μg/ml gentamicin (BioWhittaker). Cells were plated at 2×10^5 cells per well for HepG2 in 12 well cell culture dishes (Costar). The media was replaced with fresh media 20 hours later.
After 14 hours the cells were washed with 1×PBS and fresh media added (DMEM with 10% charcoal stripped fetal bovine serum (Hyclone) plus the above supplements). Ligands or PPAR activators were added to the final concentrations indicated. Control cells were treated with vehicle.
After another 24 hours the cells were harvested and the luciferase and β-galactosidase activities quantified on a Dynatech ML 1000 luminometer and a Beckman Biomek 1000 workstation respectively. The normalized response is the luciferase activity of the extract divided by the β-galactosidase activity of the same. Each data point represents the mean of three transfections. Error bars represent the standard deviation from the mean.
Control cells received an equivalent amount of vehicle. In the repression assays repressor plasmid dosage was kept constant by adding the appropriate amount of the empty expression vector pBKCMV.

A further data set relates to mPPARγ. To be noted: Tontonoz et al. 1994; Kliewer et al.; cited from earlier work.
The subject of data set [2] is CV-1 cells transfected with the empty expression vector pBKCMV (no receptor). Briefly: Co-transfection assay, control CV-1 cells transfected with empty expression vector, FIG. 4. The data set is classed as cell-based, monkey. To be noted: CV-1 cells transfected with the empty expression vector (no receptor); 1 μM compound. The procedure:
(§1) CV-1 cells were transfected with pCMVhPPARγ3 or the empty expression vector pBKCMV (no receptor). Thiazolidinedione was added.
(§2) Biochem. Molec. Biol. 41, 733–738).
(§3) Control cells were treated with vehicle.
(§4) Each data point represents the mean of three transfections. Error bars represent the standard deviation from the mean.
(§5) A cotransfection assay was performed in CV-1 cells with the pPREA3-tk-LUC and 1 μM thiazolidinedione (BRL 49,653, see Ibrahimi et al., Molecular Pharmacology 46:1070–1076, 1994). Thiazolidinedione is an insulin sensitizer and has potential use in the treatment of non-insulin dependant diabetes mellitus.

Data set [3] deals with T2, hPPARγ (Homo sapiens, UniProt P37231).
T2 construct: expressed in transfected cells; host or cells: CV-1 cells
T2 sequence (P37231 31-505): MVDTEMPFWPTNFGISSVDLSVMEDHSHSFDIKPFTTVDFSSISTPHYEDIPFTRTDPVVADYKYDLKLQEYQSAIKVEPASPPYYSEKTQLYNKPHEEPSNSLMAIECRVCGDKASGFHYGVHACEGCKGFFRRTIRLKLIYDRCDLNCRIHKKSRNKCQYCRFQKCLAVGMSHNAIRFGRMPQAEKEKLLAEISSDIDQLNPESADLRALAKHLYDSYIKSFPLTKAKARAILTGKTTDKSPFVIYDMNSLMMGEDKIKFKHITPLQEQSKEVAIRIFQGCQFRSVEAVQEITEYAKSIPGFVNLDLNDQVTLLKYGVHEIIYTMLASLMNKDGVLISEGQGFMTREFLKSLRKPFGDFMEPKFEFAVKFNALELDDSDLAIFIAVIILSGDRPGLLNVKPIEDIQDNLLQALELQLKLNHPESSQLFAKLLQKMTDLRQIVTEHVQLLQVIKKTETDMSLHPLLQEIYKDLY
Briefly: Co-transfection assay with pCMVhPPARγ3 and pPREA3-tk-LUC reporter in CV-1 cells, FIG. 4. To be noted: CV-1 cells transfected with pCMVhPPARγ3; pPREA3-tk-LUC; 1 μM compound; read-out: fold induction of reporter gene. The class given is cell-based. The method, then:
as §1, §2, §3, §4
To increase the level of hPPARγ protein synthesis, Applicant deleted a region containing the two inframe upstream ATG codons since these are absent in mouse PPARγ. pCMVhPPARγ was digested with NcoI, blunt ended with Klenow, and digested again with KpnI. The insert was isolated and directionally cloned into pBKCMV plasmid, which was digested with XbaI (blunt ended with Klenow) and KpnI. In the ensuing plasmid pCMVhPPARγ3, the translation initiation codon is within the context of a stronger Kozak translation initiation sequence.
as §5

A further data set concerns the target T3, hPPARα (Homo sapiens, UniProt Q07869).
T3 construct: expressed in transfected cells; host or cells: CV-1 cells
T3 sequence (Q07869 1-468): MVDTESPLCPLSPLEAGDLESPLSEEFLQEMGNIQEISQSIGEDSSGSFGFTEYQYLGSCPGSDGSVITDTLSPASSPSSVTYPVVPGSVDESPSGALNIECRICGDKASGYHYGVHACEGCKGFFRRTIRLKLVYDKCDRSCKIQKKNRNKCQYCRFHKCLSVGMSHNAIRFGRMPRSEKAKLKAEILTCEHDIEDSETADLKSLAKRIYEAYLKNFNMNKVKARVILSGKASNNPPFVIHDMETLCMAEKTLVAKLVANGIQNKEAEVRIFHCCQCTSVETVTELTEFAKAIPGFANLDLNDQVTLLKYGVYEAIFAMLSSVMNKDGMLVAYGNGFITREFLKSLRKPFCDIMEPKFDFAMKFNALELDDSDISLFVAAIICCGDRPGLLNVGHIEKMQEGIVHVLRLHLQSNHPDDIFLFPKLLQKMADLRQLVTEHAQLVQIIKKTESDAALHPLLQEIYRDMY
Description: Co-transfection assay, activation of hPPARα, FIG. 2. The class given is cell-based. The note with it: CV-1 cells transfected with 0.1 μg pCMVhPPARα; gemfibrozil final concentration printed as 100 M. The procedure: CV-1 cells were transfected with 0.1 μg of pCMVhPPARα and 0.1 or 0.4 μg of pCMVhNUC1 or pCMVhPPARγ. Gemfibrozil was added to a final concentration of 100 µM.
as §2
Where indicated, 0–0.5 μg of hNUC1B plasmid or hPPARγ plasmid (repressor) was added. Repressor plasmid dosage was kept constant by the addition of appropriate amounts of the empty expression vector pBKCMV. Total amount of DNA was kept at 20 μg by the addition of pGEM DNA (Promega).
as §3, §4
hPPARα is activated in the presence of gemfibrozil. When hNUC1 or hPPARγ is contransfected into cells along with hPPARα, a dose dependant repression was observed (FIG. 2). Repression of hPPARα with hNUC1 is stronger than with hPPARγ. No repression with 0.1 μg of hPPARγ was observed while repression with 0.1 μg of hNUC1 was clearly seen. However, repression with 0.4 μg of hPPARγ was observed.

As for `CC1=C(/C=C/C(C)=C\C=C\C(C)=C\C(=O)O)C(C)(C)CCC1` [9-cis retinoic acid], the “activation of hPPARγ (fold induction of reporter gene versus control cells)” value at hPPARγ [1] is listed as “same fold activation as in control transfections”.
Consider `CCCCCC#CCC#CCC#CCC#CCCCC(=O)O` [ETYA, 5,8,11,14-eicosatetraynoic acid], for which the “transcriptional activation of mPPARγ” value in the data set on mPPARγ was “transcriptionally activated”.
Regarding `CCCc1c(OCCCCc2nnn[nH]2)ccc(C(C)=O)c1O` [LY-171,883], the “transcriptional activation of mPPARγ” value in the data set on mPPARγ is listed as “transcriptionally activated”.
Turning to `O=C1CSC(=O)N1` [Thiazolidinedione], the “fold activation of reporter gene” value in data set [2] came to 7 fold. The fold induction at 1 µM at hPPARγ [3] stood at 25.
On to `Cc1ccc(C)c(OCCCC(C)(C)C(=O)O)c1` [gemfibrozil], for which the “activation of hPPARα” value on hPPARα is recorded as “activated”.

The values are drawn from patent US7115728B1, “Human peroxisome proliferator activated receptor γ” (Ligand Pharmaceutical Incorporated, priority 1995, dated 2006).
